Assay results published in ChEMBL document CHEMBL6103575, “Design, synthesis and evaluation of (E)-1-(4-(2-(1H-pyrazol-5-yl)vinyl)phenyl) derivatives as next generation selective RET inhibitors overcoming RET solvent front mutations (G810C/R)” (Eur J Med Chem, 2025).

Columns and labels:
[1] = Induction of cell cycle arrest in mouse BaF3 cells harboring CCDC6-RET assessed as accumulation of cells at G2/M phase at 300 nM incubated for 24 hrs by propidium iodide staining based analysis (reference value: 34.11%); type: functional
[2] = Induction of apoptosis in mouse BaF3 cells harboring CCDC6-RET G810C mutant assessed as viable cells at 10 nM incubated for 48 hrs by Annexin V-PE staining based flow cytometry analysis (Rvb =86.47%); type: functional; details: read-out: Activity
[3] = Induction of apoptosis in mouse BaF3 cells harboring CCDC6-RET G810C mutant assessed as necrotic cells at 300 nM incubated for 48 hrs by Annexin V-PE staining based flow cytometry analysis (Rvb =0.48%); type: functional
BaF3 [4] = test: Antiproliferative activity against mouse BaF3 cells harbouring CCDC6-RET V804M mutant assessed as inhibition of cell proliferation incubated for 72 hrs by CCK-8 assay; type: functional, cell-based; details: BaF3, 72 h
[5] = Induction of apoptosis in mouse BaF3 cells harboring CCDC6-RET assessed as necrotic cells at 30 nM incubated for 48 hrs by Annexin V-PE staining based flow cytometry analysis (Rvb =0.19%); type: functional
[6] = Induction of cell cycle arrest in mouse BaF3 cells harboring CCDC6-RET G810R mutant assessed as accumulation of cells at G2/M phase at 300 nM incubated for 24 hrs by propidium iodide staining based analysis (reference value: 33.61%); type: functional
[7] = Induction of apoptosis in mouse BaF3 cells harboring CCDC6-RET G810R mutant assessed as viable cells at 300 nM incubated for 48 hrs by Annexin V-PE staining based flow cytometry analysis (Rvb =86.40%); type: functional; details: read-out: Activity
[8] = Induction of cell cycle arrest in mouse BaF3 cells harboring CCDC6-RET G810C mutant assessed as accumulation of cells at G0/G1 phase at 100 nM incubated for 24 hrs by propidium iodide staining based analysis (reference value: 52.11%); type: functional
[9] = target: Proto-oncogene tyrosine-protein kinase receptor Ret (Homo sapiens, UniProt P07949, G810R); test: Inhibition of RET (unknown origin) G810R mutant
Proto-oncogene tyrosine-protein kinase receptor Ret, sequence (P07949 29-1114 G810R limits assumed): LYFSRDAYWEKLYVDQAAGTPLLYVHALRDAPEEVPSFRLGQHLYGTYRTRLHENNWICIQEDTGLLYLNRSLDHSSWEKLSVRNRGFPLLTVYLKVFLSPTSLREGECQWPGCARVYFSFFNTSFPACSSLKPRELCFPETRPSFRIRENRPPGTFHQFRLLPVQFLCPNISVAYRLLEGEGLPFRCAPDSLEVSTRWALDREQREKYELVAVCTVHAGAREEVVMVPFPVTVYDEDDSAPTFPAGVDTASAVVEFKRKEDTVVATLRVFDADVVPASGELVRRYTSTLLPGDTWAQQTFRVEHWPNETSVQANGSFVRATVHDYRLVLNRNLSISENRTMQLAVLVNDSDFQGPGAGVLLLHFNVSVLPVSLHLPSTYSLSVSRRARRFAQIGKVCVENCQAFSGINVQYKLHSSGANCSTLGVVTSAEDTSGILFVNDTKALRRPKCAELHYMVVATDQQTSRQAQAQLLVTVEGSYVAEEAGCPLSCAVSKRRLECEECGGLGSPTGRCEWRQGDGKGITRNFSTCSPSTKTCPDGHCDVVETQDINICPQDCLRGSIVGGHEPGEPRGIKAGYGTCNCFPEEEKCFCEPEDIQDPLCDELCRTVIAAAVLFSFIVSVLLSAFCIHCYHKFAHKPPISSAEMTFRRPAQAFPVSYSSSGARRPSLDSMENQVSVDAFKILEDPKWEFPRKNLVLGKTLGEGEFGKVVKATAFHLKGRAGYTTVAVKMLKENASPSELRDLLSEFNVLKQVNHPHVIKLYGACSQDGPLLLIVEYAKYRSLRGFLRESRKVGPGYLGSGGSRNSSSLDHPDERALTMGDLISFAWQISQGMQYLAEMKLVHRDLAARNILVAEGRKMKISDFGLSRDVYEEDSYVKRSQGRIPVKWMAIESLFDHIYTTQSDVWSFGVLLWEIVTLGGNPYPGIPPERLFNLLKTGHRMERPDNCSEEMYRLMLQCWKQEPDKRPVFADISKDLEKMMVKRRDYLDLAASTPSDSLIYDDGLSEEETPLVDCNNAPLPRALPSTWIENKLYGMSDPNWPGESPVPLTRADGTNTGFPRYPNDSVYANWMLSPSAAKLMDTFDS

[10] = Induction of apoptosis in mouse BaF3 cells harboring CCDC6-RET G810C mutant assessed as early apoptotic cells at 10 nM incubated for 48 hrs by Annexin V-PE staining based flow cytometry analysis (Rvb =8.74%); type: functional
[11] = Induction of cell cycle arrest in mouse BaF3 cells harboring CCDC6-RET G810R mutant assessed as accumulation of cells at S phase at 10 nM incubated for 24 hrs by propidium iodide staining based analysis (reference value: 13.66%); type: functional
[12] = Induction of apoptosis in mouse BaF3 cells harboring CCDC6-RET assessed as viable cells at 10 nM incubated for 48 hrs by Annexin V-PE staining based flow cytometry analysis (Rvb =91.16%); type: functional; details: read-out: Activity
[13] = Induction of cell cycle arrest in mouse BaF3 cells harboring CCDC6-RET assessed as accumulation of cells at S phase at 30 nM incubated for 24 hrs by propidium iodide staining based analysis (reference value: 13.27%); type: functional
[14] = Induction of cell cycle arrest in mouse BaF3 cells harboring CCDC6-RET G810R mutant assessed as accumulation of cells at G0/G1 phase at 10 nM incubated for 24 hrs by propidium iodide staining based analysis (reference value: 52.63%); type: functional
Ephrin type-A receptor 2 = Ephrin type-A receptor 2 (Homo sapiens, UniProt P29317); test: Inhibition of EPHA2 (unknown origin) at 1 uM relative to control
Ephrin type-A receptor 2, sequence (P29317 whole entry): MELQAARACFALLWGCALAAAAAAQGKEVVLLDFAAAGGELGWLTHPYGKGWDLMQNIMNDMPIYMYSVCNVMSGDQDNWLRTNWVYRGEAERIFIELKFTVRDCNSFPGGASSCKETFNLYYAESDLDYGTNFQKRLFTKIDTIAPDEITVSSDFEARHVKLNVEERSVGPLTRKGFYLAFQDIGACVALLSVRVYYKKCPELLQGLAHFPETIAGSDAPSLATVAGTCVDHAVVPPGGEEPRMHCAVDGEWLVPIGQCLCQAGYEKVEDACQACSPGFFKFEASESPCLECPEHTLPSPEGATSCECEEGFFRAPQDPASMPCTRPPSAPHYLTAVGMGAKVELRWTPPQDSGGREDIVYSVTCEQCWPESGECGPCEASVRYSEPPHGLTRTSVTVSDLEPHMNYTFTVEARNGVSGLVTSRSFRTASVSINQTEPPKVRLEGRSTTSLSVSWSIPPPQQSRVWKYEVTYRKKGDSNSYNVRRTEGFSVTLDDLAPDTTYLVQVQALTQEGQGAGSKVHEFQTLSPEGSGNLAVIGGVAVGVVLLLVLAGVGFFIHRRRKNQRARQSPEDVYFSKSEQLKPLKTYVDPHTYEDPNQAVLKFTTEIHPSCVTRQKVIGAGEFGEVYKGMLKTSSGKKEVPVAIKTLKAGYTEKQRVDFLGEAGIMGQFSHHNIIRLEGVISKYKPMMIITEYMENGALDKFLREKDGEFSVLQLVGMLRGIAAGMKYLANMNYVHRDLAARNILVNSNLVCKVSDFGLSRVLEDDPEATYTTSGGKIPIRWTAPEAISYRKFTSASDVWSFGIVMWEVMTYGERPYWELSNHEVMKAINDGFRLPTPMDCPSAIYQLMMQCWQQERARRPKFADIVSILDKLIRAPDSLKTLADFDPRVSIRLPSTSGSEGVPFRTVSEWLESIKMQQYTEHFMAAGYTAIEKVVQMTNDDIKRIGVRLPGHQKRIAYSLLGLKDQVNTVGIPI

[15] = Induction of apoptosis in mouse BaF3 cells harboring CCDC6-RET G810C mutant assessed as viable cells at 100 nM incubated for 48 hrs by Annexin V-PE staining based flow cytometry analysis (Rvb =86.47%); type: functional; details: read-out: Activity
BaF3 [16] = test: Inhibition of SHC phosphorylation in mouse BaF3 cells harboring CCDC6-RET incubated for 12 hrs by Western blotting analysis; type: cell-based; details: dose <= 300.0 nM
[17] = Induction of apoptosis in mouse BaF3 cells harboring CCDC6-RET G810R mutant assessed as necrotic cells at 30 nM incubated for 48 hrs by Annexin V-PE staining based flow cytometry analysis (Rvb =0.30%); type: functional
[18] = Toxicity in SCID mouse implanted with mouse BaF3 cells assessed as change in body weight at 25 mg/kg, ip administered once daily for 10 days; type: organism-based; details: in vivo, 240 h, time 10 day
[19] = Induction of apoptosis in mouse BaF3 cells harboring CCDC6-RET G810R mutant assessed as early apoptotic cells at 100 nM incubated for 48 hrs by Annexin V-PE staining based flow cytometry analysis (Rvb =10 %); type: functional
BaF3 [20] = test: Antiproliferative activity against mouse BaF3 cells harbouring CCDC6-RET G810R mutant assessed as inhibition of cell proliferation incubated for 72 hrs by CCK-8 assay; type: functional, cell-based; details: BaF3, 72 h
[21] = Induction of apoptosis in mouse BaF3 cells harboring CCDC6-RET G810C mutant assessed as early apoptotic cells at 300 nM incubated for 48 hrs by Annexin V-PE staining based flow cytometry analysis (Rvb =8.74%); type: functional
[22] = Induction of apoptosis in mouse BaF3 cells harboring CCDC6-RET G810C mutant assessed as necrotic cells at 10 nM incubated for 48 hrs by Annexin V-PE staining based flow cytometry analysis (Rvb =0.48%); type: functional
[23] = Induction of cell cycle arrest in mouse BaF3 cells harboring CCDC6-RET G810C mutant assessed as accumulation of cells at G2/M phase at 100 nM incubated for 24 hrs by propidium iodide staining based analysis (reference value: 34.75%); type: functional
[24] = Induction of apoptosis in mouse BaF3 cells harboring CCDC6-RET G810C mutant assessed as early apoptotic cells at 100 nM incubated for 48 hrs by Annexin V-PE staining based flow cytometry analysis (Rvb =8.74%); type: functional
[25] = Induction of cell cycle arrest in mouse BaF3 cells harboring CCDC6-RET G810C mutant assessed as accumulation of cells at S phase at 100 nM incubated for 24 hrs by propidium iodide staining based analysis (reference value: 12.47%); type: functional
[26] = Induction of apoptosis in mouse BaF3 cells harboring CCDC6-RET assessed as viable cells at 30 nM incubated for 48 hrs by Annexin V-PE staining based flow cytometry analysis (Rvb =91.16%); type: functional; details: read-out: Activity
[27] = Induction of cell cycle arrest in mouse BaF3 cells harboring CCDC6-RET assessed as accumulation of cells at G2/M phase at 10 nM incubated for 24 hrs by propidium iodide staining based analysis (reference value: 34.11%); type: functional
[28] = Induction of apoptosis in mouse BaF3 cells harboring CCDC6-RET assessed as viable cells at 100 nM incubated for 48 hrs by Annexin V-PE staining based flow cytometry analysis (Rvb =91.16%); type: functional; details: read-out: Activity
[29] = Induction of apoptosis in mouse BaF3 cells harboring CCDC6-RET G810R mutant assessed as late apoptotic cells at 100 nM incubated for 48 hrs by Annexin V-PE staining based flow cytometry analysis (Rvb =3.21%); type: functional

## COc1cncc(-c2cn[nH]c2/C=C/c2ccc(NC(=O)Nc3cc(C(C)(C)C(F)(F)F)on3)c(Cl)c2)c1
[1]
  Activity: 12.51%
[2]
  viability at 0.01 µM: 87.1%
[3]
  Activity: 0.03%
BaF3 [4]
  IC50: 0.563 µM
[5]
  Activity: 0.03%
[6]
  Activity: 16.09%
[7]
  viability at 0.3 µM: 22.5%
[8]
  Activity: 66.6%
[9]
  IC50: 0.0324 µM
[10]
  Activity: 9.11%
[11]
  Activity: 13.31%
[12]
  viability at 0.01 µM: 86.4%
[13]
  Activity: 13.33%
[14]
  Activity: 54.03%
Ephrin type-A receptor 2
  inhibition: 100%
[15]
  viability at 0.1 µM: 60%
BaF3 [16]
  inhibition: Dose-dependent-effect
[17]
  Activity: 0.14%
[18]
  Activity: Non-toxic
[19]
  Activity: 2.7%
BaF3 [20]
  IC50: 0.0284 µM
[21]
  Activity: 91.44%
[22]
  Activity: 0.49%
[23]
  Activity: 25.81%
[24]
  Activity: 37.84%
[25]
  Activity: 6.84%
[26]
  viability at 0.03 µM: 76.8%
[27]
  Activity: 32.46%
[28]
  viability at 0.1 µM: 24%
[29]
  Activity: 10.19%
